Measured values as given in ChEMBL document CHEMBL2176989, “Design, synthesis, and pharmacological evaluation of piperidin-4-yl amino aryl sulfonamides: novel, potent, selective, orally active, and brain penetrant 5-HT₆ receptor antagonists” (J Med Chem, 2012).

Key:
[1] = biological target: 5-hydroxytryptamine receptor 6 (Homo sapiens) (UniProt P50406); test: Antagonist activity at human recombinant 5HT6 receptor expressed in CHO cells assessed as inhibition of 5HT-induced luciferase activity after 4 hrs by reporter gene assay relative to control; type: functional, cell-based
[2] = biological target: 5-hydroxytryptamine receptor 6 (Homo sapiens) (UniProt P50406); test: Antagonist activity at human recombinant 5HT6 receptor expressed in CHO cells assessed as inhibition of 5HT-induced luciferase activity after 4 hrs by reporter gene assay; type: functional, cell-based
[3] = AUC (0 to 24 hrs) in fasted Wistar rat at 10 mg/kg, po; type: ADME, organism-based; design: time < 24 hr, dose 10 mg/kg, route oral; conditions: plasma
[4] = Oral bioavailability in fasted Wistar rat at 10 mg/kg; type: ADME, organism-based; conditions: in vivo
[5] = Tmax in fasted Wistar rat at 10 mg/kg, po; type: ADME, organism-based; design: dose 10 mg/kg, route oral; conditions: in vivo
[6] = Cmax in fasted Wistar rat at 10 mg/kg, po; type: ADME, organism-based; design: dose 10 mg/kg, route oral; conditions: in vivo
[7] = Clearance in Wistar rat at 5 mg/kg, iv; type: ADME, organism-based; design: dose 5 mg/kg, route intravenous; conditions: in vivo
[8] = Half life in Wistar rat at 5 mg/kg, iv; type: ADME, organism-based; design: dose 5 mg/kg, route intravenous; conditions: in vivo
[9] = Apparent volume of distribution in Wistar rat at 5 mg/kg, iv; type: ADME, organism-based; design: dose 5 mg/kg, route intravenous; conditions: in vivo, read-out: Vz
[10] = AUC (0 to 24 hrs) in Wistar rat at 5 mg/kg, iv; type: ADME, organism-based; design: time < 24 hr, dose 5 mg/kg, route intravenous; conditions: plasma
[11] = Ratio of drug uptake in brain to plasma in Wistar rat at 10 mg/kg, po after 1 hr; type: ADME, organism-based; design: dose 10 mg/kg, route oral; conditions: read-out: BPR
[12] = Drug metabolism in human liver microsomes at 2.5 uM at 30 mins by LC-MS/MS analysis; type: ADME, Microsome; conditions: read-out: Drug metabolism
[13] = Drug metabolism in Wistar rat liver microsomes at 2.5 uM at 30 mins by LC-MS/MS analysis; type: ADME, Microsome; conditions: read-out: Drug metabolism
[14] = biological target: Cytochrome P450 2D6 (Homo sapiens, UniProt P10635); test: Inhibition of CYP2D6 in human liver microsomes using dextromethorphan as substrate after 10 mins by LC-MS/MS analysis in presence of NADPH
[15] = biological target: Voltage-gated inwardly rectifying potassium channel KCNH2 (Homo sapiens, UniProt Q12809); test: Displacement of [3H]astemizole from human ERG by microbeta scintillation counting
Chain of Voltage-gated inwardly rectifying potassium channel KCNH2 (Q12809 whole entry): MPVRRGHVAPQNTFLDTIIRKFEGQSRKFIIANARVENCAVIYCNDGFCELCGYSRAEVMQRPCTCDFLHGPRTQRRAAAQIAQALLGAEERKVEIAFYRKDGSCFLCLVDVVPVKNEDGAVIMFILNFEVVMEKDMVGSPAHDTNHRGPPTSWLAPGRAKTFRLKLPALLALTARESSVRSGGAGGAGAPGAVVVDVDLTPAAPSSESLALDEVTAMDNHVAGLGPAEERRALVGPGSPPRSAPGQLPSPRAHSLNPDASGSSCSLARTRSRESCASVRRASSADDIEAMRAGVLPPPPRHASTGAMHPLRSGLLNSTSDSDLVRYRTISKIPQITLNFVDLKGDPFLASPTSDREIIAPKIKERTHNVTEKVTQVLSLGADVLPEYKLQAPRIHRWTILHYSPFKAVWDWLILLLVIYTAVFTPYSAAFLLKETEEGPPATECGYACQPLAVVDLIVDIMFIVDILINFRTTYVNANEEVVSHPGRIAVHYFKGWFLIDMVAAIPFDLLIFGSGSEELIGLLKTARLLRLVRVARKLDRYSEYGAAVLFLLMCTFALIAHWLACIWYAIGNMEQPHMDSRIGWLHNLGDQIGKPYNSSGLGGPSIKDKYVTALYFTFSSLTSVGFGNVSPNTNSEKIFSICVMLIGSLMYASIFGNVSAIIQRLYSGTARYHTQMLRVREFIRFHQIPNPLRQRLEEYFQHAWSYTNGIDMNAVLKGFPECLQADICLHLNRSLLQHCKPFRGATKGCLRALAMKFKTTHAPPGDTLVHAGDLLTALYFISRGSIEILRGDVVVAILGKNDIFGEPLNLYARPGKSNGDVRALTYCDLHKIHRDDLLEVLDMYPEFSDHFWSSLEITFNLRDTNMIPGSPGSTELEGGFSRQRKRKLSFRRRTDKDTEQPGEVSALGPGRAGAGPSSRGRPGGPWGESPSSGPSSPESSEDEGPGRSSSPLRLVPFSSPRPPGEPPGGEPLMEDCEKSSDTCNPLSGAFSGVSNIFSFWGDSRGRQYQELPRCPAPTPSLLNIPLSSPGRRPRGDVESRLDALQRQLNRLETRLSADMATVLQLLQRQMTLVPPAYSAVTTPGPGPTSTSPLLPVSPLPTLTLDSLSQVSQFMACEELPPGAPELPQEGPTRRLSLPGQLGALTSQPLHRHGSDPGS

Chain of 5-hydroxytryptamine receptor 6 (Homo sapiens) (P50406 whole entry): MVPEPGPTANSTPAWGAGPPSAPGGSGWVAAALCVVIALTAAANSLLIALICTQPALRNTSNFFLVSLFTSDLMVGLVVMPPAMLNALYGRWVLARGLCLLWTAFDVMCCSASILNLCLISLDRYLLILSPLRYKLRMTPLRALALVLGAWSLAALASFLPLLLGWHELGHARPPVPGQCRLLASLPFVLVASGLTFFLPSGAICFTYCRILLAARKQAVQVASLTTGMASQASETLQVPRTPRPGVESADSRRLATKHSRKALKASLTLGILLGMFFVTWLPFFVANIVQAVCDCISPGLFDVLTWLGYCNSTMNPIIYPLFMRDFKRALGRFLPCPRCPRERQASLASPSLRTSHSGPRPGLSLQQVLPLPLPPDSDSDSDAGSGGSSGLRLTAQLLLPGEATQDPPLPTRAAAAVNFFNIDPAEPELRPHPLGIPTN
Chain of Cytochrome P450 2D6 (P10635 whole entry): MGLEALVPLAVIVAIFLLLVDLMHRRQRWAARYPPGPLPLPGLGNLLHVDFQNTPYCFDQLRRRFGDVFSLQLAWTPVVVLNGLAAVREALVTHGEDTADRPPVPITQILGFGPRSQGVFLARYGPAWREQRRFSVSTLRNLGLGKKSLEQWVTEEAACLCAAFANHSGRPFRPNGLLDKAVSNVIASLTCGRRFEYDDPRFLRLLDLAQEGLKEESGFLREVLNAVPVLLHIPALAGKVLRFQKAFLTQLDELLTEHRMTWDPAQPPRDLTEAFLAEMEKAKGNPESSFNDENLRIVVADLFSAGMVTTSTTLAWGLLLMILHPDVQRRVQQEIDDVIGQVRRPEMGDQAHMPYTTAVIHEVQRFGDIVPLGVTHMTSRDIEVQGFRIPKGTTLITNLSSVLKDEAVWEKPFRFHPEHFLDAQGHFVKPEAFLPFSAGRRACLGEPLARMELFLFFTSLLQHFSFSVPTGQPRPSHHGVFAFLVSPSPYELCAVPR

Row | Imax [1] | Kb [2] | Structure (SMILES) | other results
1 | 97% | 7.5 nM | Cc1ccc(S(=O)(=O)n2ccc3cc(F)ccc32)cc1NC1CCN(C)CC1 | –
2 | 100% | 0.6 nM | COc1ccc(S(=O)(=O)n2nc(C)c3cc(Cl)ccc32)cc1NC1CCN(C)CC1.O=C(O)C(O)C(O)C(=O)O | AUC(0-t) at 24 h [3]: 300 ng·h/mL; bioavailability [4]: 25%; Tmax [5]: 2 h; Cmax [6]: 57 ng/mL; clearance [7]: 143 mL/min/kg; half-life [8]: 1.7 h; Vd [9]: 16 L/kg; AUC(0-t) at 24 h [10]: 600 ng·h/mL; Kp at 1 h [11]: 0.5; metabolised at 0.5 h, 2.5 µM [12]: 60%; metabolised at 0.5 h, 2.5 µM [13]: 69%; IC50 [14]: 14500 nM
3 | 97% | 1.91 nM | COc1ccc(S(=O)(=O)n2ccc3cc(Br)ccc32)cc1NC1CCN(C)CC1 | –
4 | 98% | 2.39 nM | CN1CCC(Nc2cccc(S(=O)(=O)n3ccc4ccc(Cl)cc43)c2)CC1 | –
5 | 100% | 0.52 nM | COc1ccc(S(=O)(=O)n2cc(C)c3cc(F)ccc32)cc1NC1CCN(C)CC1 | Ki [15]: 950 nM
6 | 100% | 0.1 nM | COc1ccc2c(C)cn(S(=O)(=O)c3ccc(OC)c(NC4CCN(C)CC4)c3)c2c1 | –
7 | 97% | 3.9 nM | Cc1ccc(S(=O)(=O)n2cc(C)c3cc(Cl)cnc32)cc1NC1CCN(C)CC1 | –
8 | 90% | 12.8 nM | CCc1ccc(S(=O)(=O)n2ccc3c(Cl)cccc32)cc1NC1CCN(C)CC1 | –
9 | 98% | 5.3 nM | CCc1ccc(S(=O)(=O)n2ccc3ccc(Cl)cc32)cc1NC1CCN(C)CC1 | –
10 | 100% | 0.1 nM | COc1ccc(S(=O)(=O)N2CCOc3ccc(Cl)cc32)cc1NC1CCN(C)CC1 | AUC(0-t) at 24 h [3]: 384 ng·h/mL; bioavailability [4]: 12%; Tmax [5]: 0.5 h; Cmax [6]: 197 ng/mL; clearance [7]: 58 mL/min/kg; half-life [8]: 0.7 h; Vd [9]: 2.5 L/kg; AUC(0-t) at 24 h [10]: 1450 ng·h/mL; Kp at 1 h [11]: 0.6; metabolised at 0.5 h, 2.5 µM [12]: 70%; metabolised at 0.5 h, 2.5 µM [13]: 85%
11 | 98% | 1.7 nM | COc1ccc(S(=O)(=O)n2cc(C)c3nc(Cl)ccc32)cc1NC1CCN(C)CC1 | –
12 | 100% | 1.8 nM | COc1ccc(S(=O)(=O)n2ccc3cc(F)ccc32)cc1NC1CCN(C)CC1 | –
13 | 99% | 4 nM | Cc1cn(S(=O)(=O)c2cccc(NC3CCN(C)CC3)c2)c2ncc(Cl)cc12 | –
14 | 100% | 0.3 nM | COc1ccc(S(=O)(=O)n2ccc3cc(F)ccc32)cc1NC1CCNCC1 | –
15 | 100% | 1.22 nM | COc1ccc(S(=O)(=O)n2ccc3ccccc32)cc1NC1CCN(C)CC1 | –
16 | 98% | 4.37 nM | COc1ccc(S(=O)(=O)n2ccc3cc(Cl)ccc32)cc1NC1CCN(C)CC1 | –
17 | 95% | 11.7 nM | COc1ccc2c(ccn2S(=O)(=O)c2ccc(F)c(NC3CCN(C)CC3)c2)c1 | –
18 | 100% | 1.2 nM | COc1ccc2ccn(S(=O)(=O)c3cccc(NC4CCN(C)CC4)c3)c2c1 | –
19 | 39% | 28.6 nM | Cc1nn(S(=O)(=O)c2ccc(Cl)c(NC3CCN(C)CC3)c2)c2ccc(Cl)cc12 | –
20 | 98% | 0.25 nM | COc1ccc2ccn(S(=O)(=O)c3ccc(C)c(NC4CCN(C)CC4)c3)c2c1 | –
21 | 85% | 1.3 nM | COc1ccc(S(=O)(=O)n2cc(C)c3cc(Cl)ncc32)cc1NC1CCN(C)CC1 | –
22 | 70% | 51.3 nM | COc1ccc2c(ccn2S(=O)(=O)c2ccc(C)c(NC3CCN(C)CC3)c2)c1 | –
23 | 98% | 0.07 nM | COc1ccc(S(=O)(=O)N2CCc3ccccc3C2)cc1NC1CCN(C)CC1 | Kp at 1 h [11]: 0.24
24 | 100% | 0.2 nM | COc1ccc(S(=O)(=O)n2ccc3ccc(F)cc32)cc1NC1CCN(C)CC1 | –
25 | 100% | 0.1 nM | COc1ccc(S(=O)(=O)n2cc(C)c3ccc(Cl)cc32)cc1NC1CCN(C)CC1 | –
26 | 100% | 0.2 nM | COc1ccc(S(=O)(=O)N2CCOc3ccccc32)cc1NC1CCN(C)CC1 | Ki [15]: > 10000 nM

Row | Imax [1] | Kb [2] | Structure (SMILES) | other results
27 | 100% | 0.3 nM | COc1ccc(S(=O)(=O)n2ccc3ccc(F)cc32)cc1NC1CCNCC1 | –
28 | 96% | 3.8 nM | COc1ccc2c(ccn2S(=O)(=O)c2ccc(OC)c(NC3CCN(C)CC3)c2)c1 | –
29 | 96% | 12.5 nM | COc1ccc2c(ccn2S(=O)(=O)c2cccc(NC3CCN(C)CC3)c2)c1 | –
30 | 100% | 2.2 nM | COc1ccc(S(=O)(=O)n2ccc3cc(OC(C)C)ccc32)cc1NC1CCN(C)CC1 | –
31 | 100% | 0.1 nM | COc1ccc(S(=O)(=O)N2CCCc3ccccc32)cc1NC1CCNCC1 | –
32 | 100% | 3.3 nM | COc1ccc2ccn(S(=O)(=O)c3ccc(Cl)c(NC4CCN(C)CC4)c3)c2c1 | –
33 | 100% | 0.1 nM | COc1ccc(S(=O)(=O)N2CCOc3ccc(F)cc32)cc1NC1CCN(C)CC1 | –
34 | 95% | 18.3 nM | CCc1ccc(S(=O)(=O)n2ccc3cc(F)ccc32)cc1NC1CCN(C)CC1 | –
35 | 100% | 0.1 nM | COc1ccc(S(=O)(=O)N2CCOc3ccc(C(F)(F)F)cc32)cc1NC1CCN(C)CC1 | –
36 | 95% | 2.3 nM | COc1cnc2c(c1)c(C)cn2S(=O)(=O)c1ccc(OC)c(NC2CCN(C)CC2)c1 | –
37 | 99% | 3.2 nM | COc1ccc(S(=O)(=O)n2ccc3cc(Br)ccc32)cc1NC1CCNCC1 | –
38 | 100% | 0.52 nM | Cc1cn(S(=O)(=O)c2ccc(F)c(NC3CCN(C)CC3)c2)c2ccccc12 | –
39 | 59% | 10.1 nM | Cc1nn(S(=O)(=O)c2ccc(F)c(NC3CCN(C)CC3)c2)c2ccc(Cl)cc12 | –
40 | 90% | 12 nM | COc1cnc2c(ccn2S(=O)(=O)c2ccc(OC)c(NC3CCN(C)CC3)c2)c1 | –
41 | 100% | 0.14 nM | COc1ccc(S(=O)(=O)n2ccc3ccc(Cl)cc32)cc1NC1CCN(C)CC1 | –
42 | 97% | 0.1 nM | COc1ccc(S(=O)(=O)n2cc(C)c3cc(Cl)cnc32)cc1NC1CCNCC1 | –
43 | 92% | 3.19 nM | CN1CCC(Nc2cccc(S(=O)(=O)n3ccc4ccccc43)c2)CC1 | –
44 | 98% | 0.15 nM | COc1ccc(S(=O)(=O)n2ccc3cc(Cl)cnc32)cc1NC1CCN(C)CC1 | –
45 | 99% | 1.39 nM | CCc1ccc(S(=O)(=O)n2ccc3ccccc32)cc1NC1CCN(C)CC1 | –
46 | 94% | 16 nM | CN1CCC(Nc2cc(S(=O)(=O)n3ccc4cc(Br)ccc43)ccc2F)CC1 | –
47 | 98% | 10.3 nM | CN1CCC(Nc2cccc(S(=O)(=O)n3ccc4cc(Br)ccc43)c2)CC1 | –
48 | 100% | 1.6 nM | CN1CCC(Nc2cc(S(=O)(=O)n3ccc4ccccc43)ccc2F)CC1 | –
49 | 100% | 0.1 nM | COc1ccc(S(=O)(=O)N2CC(C)(C)Oc3ccc(F)cc32)cc1NC1CCN(C)CC1 | –
50 | 100% | 0.1 nM | COc1ccc(S(=O)(=O)N2CCOc3ccc(C)cc32)cc1NC1CCN(C)CC1 | –
51 | 100% | 0.06 nM | COc1ccc(S(=O)(=O)N2CCCc3ccccc32)cc1NC1CCN(C)CC1 | Kp at 1 h [11]: 0.02
52 | 100% | 0.1 nM | COc1ccc2ccn(S(=O)(=O)c3ccc(OC)c(NC4CCN(C)CC4)c3)c2c1.O=P(O)(O)O | Kp at 1 h [11]: 0.6
